The values below come from patent US20130012432A1, “Peptides for Treatment of Obesity” (Novo Nordisk A/S, priority 2010, published 2013).

Values after ≈ are worked out from the molar mass of the structure shown. Positions of bridges follow the written chain, without caps; N, C: chain ends. Non-standard residues stand in square brackets, D forms with d. Residues, ends and D or L forms follow the SMILES beside them. Groups on a side chain read outwards from the residue. *: point of attachment. Lys(CH2CO2H)2 = N[C@@H](CCCCN(CC(=O)O)CC(=O)O)C(=O)O; C17 diacid = O=C(O)CCCCCCCCCCCCCCCC(=O)*; AEEA = NCCOCCOCC(=O)O

One data set deals with human MC4 receptor (Homo sapiens, UniProt P32245). Kind of data set: biochemical. How it is done: Assay (V)—Melanocortin Receptor 4 (MC4) Binding Assay
In Vitro ^125NDP-α-MSH Binding to Recombinant BHK Cells Expressing Human MC4 Receptor (Filtration Assay).
The assay was performed in 5 ml minisorb vials (Sarstedt No. 55.526) or in 96-well filter-plates (Millipore MADVN 6550), and using BHK cells expressing the human MC4 receptor using BHK cells stably expressing the human MC4 receptor. The membranes were prepared from frozen or fresh cells that were homogenized in 20 mM HEPES pH 7.1, 5 mM MgCl2 and 1 mg/ml bacitracin and centrifuged at 15000 rpm at 4° C., 10 min in a Sorvall RC 5B plus, SS-34 rotor. The supernatant was discarded, and the pellets were re-suspended in buffer, homogenized and centrifuged two more times. The final pellets were resuspended in the buffer mentioned above, and the protein concentration was measured and adjusted with buffer to 14 to 17 mg/ml and the membrane preparation were kept at −80° C. until assay. The assay was run directly on a dilution of this cell membrane suspension, without any further preparation. The BHK cell membranes are kept at −80° C. until assay, and the assay is run directly on a dilution of this cell membrane suspension, without further preparation. The suspension is diluted to give maximally 10% specific binding, i.e. to approx. 50-100 fold dilution. The assay was performed in a total volume of 200 μl: 50 μl of cell suspension, 50 μl of ^125NDP-α-MSH (≈79 pM in final concentration), 50 μl of test compound and 50 μl binding buffer (pH 7) mixed and incubated for 2 h at 25° C. [binding buffer: 25 mM HEPES, pH 7.0, 1 mM CaCl2, 1 mM MgSO4, 1 mM EGTA, 0.02% Bacitracin, 0.005% Tween™ 20 and 0.1% HSA or, alternatively, 0.1% ovalbumin (Sigma; catalogue No. A-5503)]. Test compounds were dissolved in DMSO and diluted in binding buffer. Radiolabelled ligand and membranes were diluted in binding buffer. The incubation was stopped by dilution with 2×100 μl ice-cold 0.9% NaCl. The radioactivity retained on the filters was counted using a Cobra II auto gamma counter.
The data were analysed by non-linear regression analysis of binding curves, using the Windows™ program GraphPad™ Prism (GraphPad Software, USA).

The next data set can be described thus: physchem. How it is done:
From a stock solution in vehicle, either H2O or 10 mM phosphate, containing 1 mg (as weighed) compound per ml, 8-11 aliquots are withdrawn and pH-adjusted individually with HCl/NaOH, to cover the whole pH range.

For the next data set, the target named is MC1 receptor (Homo sapiens, UniProt Q01726). In words: biochemical. The procedure, abridged:
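Compounds competed against 125I-NDP-α-MSH (22 pM final) for binding to stably MC1-expressing BHK cell membranes, 30 °C for 90 min in HEPES pH 7.4 buffer with 0.1% HSA or ovalbumin. Bound ligand collected by filtration and counted; binding curves analysed by non-linear regression.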

Another data set has as its target T1, human GLP-1 receptor (Homo sapiens, UniProt P43220).
T1 construct: expressed in transfected cells; purified plasma membranes
In words: Assay (XI) GLP-1 activity assay, stimulation of cAMP formation. Format: biochemical. The conditions noted are these: membranes of BHK467-12A cells expressing human GLP-1 receptor. An excerpt:
The capture of cAMP is achieved by using a specific antibody conjugated to acceptor beads.

T1 sequence (P43220 24-463): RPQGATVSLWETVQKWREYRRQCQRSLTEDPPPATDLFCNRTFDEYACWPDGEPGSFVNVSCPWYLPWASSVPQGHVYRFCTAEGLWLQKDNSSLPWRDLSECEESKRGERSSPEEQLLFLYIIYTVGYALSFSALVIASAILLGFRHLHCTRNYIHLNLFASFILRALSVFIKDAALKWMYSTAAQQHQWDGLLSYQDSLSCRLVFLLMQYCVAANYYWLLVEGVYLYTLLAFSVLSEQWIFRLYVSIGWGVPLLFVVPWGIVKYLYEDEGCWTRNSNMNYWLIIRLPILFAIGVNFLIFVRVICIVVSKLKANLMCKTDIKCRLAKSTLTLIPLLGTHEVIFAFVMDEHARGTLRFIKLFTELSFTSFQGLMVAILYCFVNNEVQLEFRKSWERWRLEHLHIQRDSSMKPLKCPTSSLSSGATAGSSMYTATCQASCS
MC1 receptor, sequence (Q01726 whole entry): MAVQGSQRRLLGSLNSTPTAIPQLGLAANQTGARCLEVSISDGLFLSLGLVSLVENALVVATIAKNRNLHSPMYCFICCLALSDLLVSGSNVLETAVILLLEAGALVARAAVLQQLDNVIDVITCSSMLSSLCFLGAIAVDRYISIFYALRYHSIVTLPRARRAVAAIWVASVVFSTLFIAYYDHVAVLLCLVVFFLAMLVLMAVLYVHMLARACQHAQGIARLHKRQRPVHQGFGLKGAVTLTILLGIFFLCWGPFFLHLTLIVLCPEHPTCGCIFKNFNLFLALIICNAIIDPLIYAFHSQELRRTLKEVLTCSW
human MC4 receptor, sequence (P32245 whole entry): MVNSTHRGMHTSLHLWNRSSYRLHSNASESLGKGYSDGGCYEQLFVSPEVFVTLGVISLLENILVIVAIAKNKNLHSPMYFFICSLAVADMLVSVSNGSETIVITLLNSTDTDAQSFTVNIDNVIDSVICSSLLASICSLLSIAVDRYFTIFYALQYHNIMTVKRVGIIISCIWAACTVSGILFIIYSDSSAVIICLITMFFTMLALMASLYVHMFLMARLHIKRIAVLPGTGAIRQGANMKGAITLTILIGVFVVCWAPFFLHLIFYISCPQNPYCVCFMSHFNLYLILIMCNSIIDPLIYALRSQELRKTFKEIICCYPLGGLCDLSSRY

A word on the Ki: it is a measure of affinity in units of concentration, obtained from inhibition or displacement. The low end stands for tighter binding, the high end for weaker binding. One may read the solubility as the dissolved amount per volume that the medium holds. Consider `CC(=O)N[C@H]1CCCCNC(=O)C[C@@H](C(=O)N2CCC[C@H]2C(=O)N[C@@H](CO)C(=O)N[C@@H](Cc2c[nH]cn2)C(=O)N[C@@H](CCC(=O)O)C(=O)N[C@@H](CCCCN(CC(=O)O)CC(=O)O)C(=O)N[C@@H](CCCCNC(=O)COCCOCCNC(=O)CCCCCCCCCCCCCCCC(=O)O)C(N)=O)NC(=O)[C@H](Cc2c[nH]c3ccccc23)NC(=O)[C@H](CCCNC(=N)N)NC(=O)[C@@H](Cc2ccccc2)NC(=O)[C@H](Cc2c[nH]cn2)NC1=O` [Example 49, Ac-c[Lys-His-D-Phe-Arg-Trp-Asp]-Pro-Ser-His-Glu-Lys(biscarboxymethyl)-Lys({2-[2-(16-carboxyhexadecanoylamino)ethoxy]ethoxy}acetyl)-NH2] (Ac-KH[dF]RWDPSHE[Lys(CH2CO2H)2]K([AEEA-C17 diacid])-NH2; lactam 1-6), for which the Ki on human MC4 receptor was 0.025 µM; on MC1 receptor, greater than 10 µM. In addition, the solubility was 248 µM (≈ 536 µg/mL) in the data set “physchem” (pH 6.5, Solubility Conc.); 423 µM (≈ 914 µg/mL) in the data set “physchem” (pH 6.6, Solubility Conc.); 427 µM (≈ 923 µg/mL) in “physchem” (pH 6.8, Solubility Conc.); 462 µM (≈ 999 µg/mL) in “physchem” (pH 7, Solubility Conc.); 460 µM (≈ 994 µg/mL) in “physchem” (pH 7.3, Solubility Conc.); 439 µM (≈ 949 µg/mL) in the data set “physchem” (pH 7.7, Solubility Conc.). Further, the solubility in the data set “physchem” (pH 7.8, Solubility Conc.) amounted to 456 µM (≈ 986 µg/mL); in the data set “physchem” (pH 8, Solubility Conc.), 410 µM (≈ 886 µg/mL); in the data set “physchem” (pH 8.2, Solubility Conc.) it was 446 µM (≈ 964 µg/mL).

For exendin-4(7-45) [SEQ ID NO: 4], the “EC50 relative to that of compound G1” value at human GLP-1 receptor is on record as “about 0.3 times”.
